According to PubChem BioAssay (NCI):
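Briefly, cells in 96-well plates were exposed to five compound concentrations for 48 h, and endpoints were estimated by linear interpolation. At the TGI there is no net growth.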

Columns and labels:
Experiment in all cases: NCI tumour cell line growth inhibition, 48 h
[1] = test system: MDA-MB-231 breast
[2] = test system: OVCAR-8 ovarian
[3] = test system: HT29 colon
[4] = test system: CAKI-1 renal
[5] = test system: SK-MEL-28 melanoma
[6] = test system: MDA-N
[7] = test system: SNB-75 CNS
[8] = test system: SNB-19 CNS
[9] = test system: UO-31 renal
[10] = test system: LOX IMVI melanoma
[11] = test system: SW-620 colon
[12] = test system: HS 578T breast
[13] = test system: IGROV1 ovarian
[14] = test system: NCI-H460 lung
[15] = test system: A549 NSCLC
[16] = test system: ACHN renal
[17] = test system: HCT-15 colon
[18] = test system: BT-549 breast
[19] = test system: SK-MEL-2 melanoma
[20] = test system: MALME-3M melanoma
[21] = test system: NCI/ADR-RES ovarian
[22] = test system: UACC-257 melanoma
[23] = test system: HCT-116 colon
[24] = test system: HCC-2998 colon
[25] = test system: SN12C renal
[26] = test system: COLO 205 colon
[27] = test system: TK-10 renal
[28] = test system: NCI-H226 lung
[29] = test system: OVCAR-4 ovarian
[30] = test system: T-47D breast
[31] = test system: HOP-92 NSCLC
[32] = test system: MDA-MB-435
[33] = test system: 786-0 renal
[34] = test system: SF-268 CNS
[35] = test system: DU-145 prostate
[36] = test system: PC-3 prostate
[37] = test system: NCI-H23 lung
[38] = test system: NCI-H522 lung
[39] = test system: SK-MEL-5 melanoma
[40] = test system: UACC-62 melanoma
[41] = test system: RPMI-8226 leukemia
[42] = test system: KM12 colon
[43] = test system: K-562 leukemia
[44] = test system: A498 renal
[45] = test system: U251 CNS
[46] = test system: CCRF-CEM leukemia
[47] = test system: EKVX NSCLC
[48] = test system: SK-OV-3 ovarian
[49] = test system: SF-295 CNS
[50] = test system: OVCAR-5 ovarian
[51] = test system: M14 melanoma
[52] = test system: MCF7 breast
[53] = test system: MOLT-4 leukemia
[54] = test system: OVCAR-3 ovarian
[55] = test system: HOP-62 NSCLC

In the case of Cc1ccc(-c2c(C#N)c(N)nc3c2CCS(=O)(=O)c2ccccc2-3)cc1, the TGI [1] was > 100 µM, the TGI [2] was > 100 µM and the TGI [3] was > 100 µM. The TGI [4] was > 100 µM, the TGI [5] was > 100 µM and the TGI [6] was > 100 µM. For the same compound, the TGI [7] was 78.9 µM, the TGI [8] was > 100 µM and the TGI [9] was > 100 µM. The TGI [10] was > 100 µM, the TGI [11] was > 100 µM and the TGI [12] was > 100 µM. The TGI [13] was > 100 µM, the TGI [14] was > 100 µM and the TGI [15] was > 100 µM. The TGI [16] was > 100 µM, the TGI [17] was > 100 µM and the TGI [18] was > 100 µM. For the same compound, the TGI [19] was > 100 µM, the TGI [20] was > 100 µM and the TGI [21] was > 100 µM. For the same compound, the TGI [22] was > 100 µM, the TGI [23] was > 100 µM and the TGI [24] was > 100 µM. For the same compound, the TGI [25] was > 100 µM, the TGI [26] was > 100 µM and the TGI [27] was > 100 µM. The TGI [28] was > 100 µM, the TGI [29] was > 100 µM and the TGI [30] was > 100 µM. The TGI [31] was > 100 µM, the TGI [32] was > 100 µM and the TGI [33] was > 100 µM. The TGI [34] was > 100 µM, the TGI [35] was > 100 µM and the TGI [36] was > 100 µM. The TGI [37] was > 100 µM, the TGI [38] was > 100 µM and the TGI [39] was > 100 µM. For the same compound, the TGI [40] was > 100 µM, the TGI [41] was > 100 µM and the TGI [42] was > 100 µM. The TGI [43] was > 100 µM, the TGI [44] was > 100 µM and the TGI [45] was > 100 µM.
COC(=O)C1=C(CCCCO[Si](C)(C)C(C)(C)C)NC(=O)N2[C@@H](CCOCc3ccccc3)CC[C@H]12 gave a TGI [1] of 52.1 µM, a TGI [3] of 35.1 µM and a TGI [4] of 92.9 µM. The TGI [5] was > 100 µM, the TGI [6] was 49.9 µM and the TGI [7] was > 100 µM. The TGI [8] was > 100 µM, the TGI [9] was 56.2 µM and the TGI [46] was 51.9 µM. For the same compound, the TGI [47] was > 100 µM, the TGI [14] was > 100 µM and the TGI [15] was 77.7 µM. For the same compound, the TGI [16] was > 100 µM, the TGI [17] was 43.9 µM and the TGI [48] was > 100 µM. For the same compound, the TGI [18] was 51 µM, the TGI [19] was 35.8 µM and the TGI [20] was 47.3 µM. The TGI [49] was > 100 µM, the TGI [21] was 42.4 µM and the TGI [22] was > 100 µM. The TGI [23] was 24.6 µM, the TGI [50] was > 100 µM and the TGI [24] was 78.9 µM. The TGI [25] was 32.7 µM, the TGI [26] was 32.4 µM and the TGI [27] was > 100 µM. For the same compound, the TGI [51] was 79.4 µM, the TGI [52] was > 100 µM and the TGI [29] was > 100 µM. The TGI [53] was > 100 µM, the TGI [30] was > 100 µM and the TGI [31] was 34.4 µM. For the same compound, the TGI [32] was > 100 µM, the TGI [33] was 30.9 µM and the TGI [34] was > 100 µM. The TGI [35] was > 100 µM, the TGI [54] was 30.1 µM and the TGI [36] was 75.8 µM. For the same compound, the TGI [37] was 67.9 µM, the TGI [38] was 48.2 µM and the TGI [39] was 22.2 µM. The TGI [40] was > 100 µM, the TGI [41] was > 100 µM and the TGI [42] was 44.2 µM. For the same compound, the TGI [43] was > 100 µM, the TGI [44] was > 100 µM and the TGI [45] was 28.2 µM. For the same compound, the TGI [55] was 65.2 µM.
